Reference: BigSolDB 2.1

NC(=NCCCCCCN=C(N)/N=C(\N)Nc1ccc(Cl)cc1)/N=C(\N)Nc1ccc(Cl)cc1
solubility (mole fraction)
Details	283.15 K	288.15 K	293.15 K	298.15 K	303.15 K	308.15 K	313.15 K	318.15 K	323.15 K
in 1,4-dioxane	–	0.000569	0.000674	0.000764	0.000888	0.00102	0.00117	0.00133	0.00153
in DMF	0.00795	0.00941	0.0111	0.0131	0.0153	0.018	0.0206	0.0241	0.0277
in ethanol	0.000405	0.000471	0.000539	0.000613	0.000706	0.000803	0.000914	0.00103	0.00117
in methanol	0.000656	0.000751	0.000846	0.000967	0.00108	0.00123	0.00137	0.00154	0.00173
in water	1.45e-06	2.03e-06	2.79e-06	3.84e-06	5.21e-06	7.06e-06	9.32e-06	1.23e-05	1.62e-05
